Among the targets are FGFR2 (Homo sapiens, UniProt P21802); PDGFR-β (Homo sapiens, UniProt P09619); ErbB4 (Homo sapiens, UniProt Q15303); Abl (Homo sapiens, UniProt P00519).
Holding throughout (assay): Kinase panel profiling
What all share (assay type): biochemical

The next assay concerns the target T1, AXL (Homo sapiens, UniProt P30530).
T1 sequence (P30530 26-894): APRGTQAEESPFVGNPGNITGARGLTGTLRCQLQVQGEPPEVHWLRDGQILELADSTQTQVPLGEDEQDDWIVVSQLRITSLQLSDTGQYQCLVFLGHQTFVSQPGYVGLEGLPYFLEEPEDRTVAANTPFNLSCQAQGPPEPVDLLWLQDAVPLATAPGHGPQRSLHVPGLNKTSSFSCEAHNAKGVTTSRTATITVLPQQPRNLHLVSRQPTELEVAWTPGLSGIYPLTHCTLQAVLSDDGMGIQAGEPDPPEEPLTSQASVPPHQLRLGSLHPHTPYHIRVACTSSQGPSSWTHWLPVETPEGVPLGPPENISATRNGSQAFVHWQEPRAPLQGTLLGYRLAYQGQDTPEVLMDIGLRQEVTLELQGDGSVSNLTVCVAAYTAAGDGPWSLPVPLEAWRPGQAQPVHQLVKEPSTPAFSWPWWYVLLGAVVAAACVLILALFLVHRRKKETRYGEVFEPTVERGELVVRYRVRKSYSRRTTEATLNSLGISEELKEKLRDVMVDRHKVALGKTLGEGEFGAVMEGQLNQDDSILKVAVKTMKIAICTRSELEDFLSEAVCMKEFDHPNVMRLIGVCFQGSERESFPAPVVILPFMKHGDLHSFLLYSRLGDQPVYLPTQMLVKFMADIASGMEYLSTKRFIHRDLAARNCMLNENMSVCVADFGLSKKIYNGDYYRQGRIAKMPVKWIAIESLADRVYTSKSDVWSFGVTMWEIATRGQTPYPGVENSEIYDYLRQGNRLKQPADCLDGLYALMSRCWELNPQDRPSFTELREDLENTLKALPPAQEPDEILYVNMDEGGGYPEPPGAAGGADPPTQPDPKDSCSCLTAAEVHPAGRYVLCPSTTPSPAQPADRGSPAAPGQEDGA

The target in a further assay is T2, DDR2 (Homo sapiens, UniProt Q16832).
T2 sequence (Q16832 22-855): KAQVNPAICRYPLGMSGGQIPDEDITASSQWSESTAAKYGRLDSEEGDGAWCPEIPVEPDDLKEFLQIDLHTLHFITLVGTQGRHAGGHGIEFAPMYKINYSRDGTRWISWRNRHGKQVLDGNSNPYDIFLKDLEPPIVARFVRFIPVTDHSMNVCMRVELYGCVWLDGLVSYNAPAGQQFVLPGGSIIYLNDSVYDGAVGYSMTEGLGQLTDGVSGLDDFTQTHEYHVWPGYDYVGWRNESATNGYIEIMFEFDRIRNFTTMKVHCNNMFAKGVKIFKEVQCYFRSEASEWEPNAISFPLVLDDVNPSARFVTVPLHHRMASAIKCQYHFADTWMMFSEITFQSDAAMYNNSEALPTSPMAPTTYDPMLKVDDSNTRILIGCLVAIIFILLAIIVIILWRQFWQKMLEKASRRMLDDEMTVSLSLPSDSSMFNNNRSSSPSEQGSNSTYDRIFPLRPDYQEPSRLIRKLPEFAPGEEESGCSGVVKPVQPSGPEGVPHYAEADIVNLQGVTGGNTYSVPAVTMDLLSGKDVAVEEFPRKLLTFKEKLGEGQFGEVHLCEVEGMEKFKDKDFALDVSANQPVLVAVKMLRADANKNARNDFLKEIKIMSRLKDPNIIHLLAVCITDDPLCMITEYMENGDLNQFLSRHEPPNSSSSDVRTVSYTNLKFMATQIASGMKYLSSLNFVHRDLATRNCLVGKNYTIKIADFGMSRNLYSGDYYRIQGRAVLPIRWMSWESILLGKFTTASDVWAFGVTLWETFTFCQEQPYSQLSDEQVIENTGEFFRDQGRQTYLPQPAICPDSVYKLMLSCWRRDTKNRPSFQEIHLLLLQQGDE

We go through one molecule from PMC6017193, “Structure-Based Discovery of a Series of 5H-Pyrrolo[2,3-b]pyrazine FGFR Kinase Inhibitors” (Molecules : A Journal of Synthetic Chemistry and Natural …, 2018).

Each structure is given as a SMILES string.

One may read the inhibition as the change of the read-out against control, counted positive when it falls.

Chain of FGFR2 (P21802 22-821): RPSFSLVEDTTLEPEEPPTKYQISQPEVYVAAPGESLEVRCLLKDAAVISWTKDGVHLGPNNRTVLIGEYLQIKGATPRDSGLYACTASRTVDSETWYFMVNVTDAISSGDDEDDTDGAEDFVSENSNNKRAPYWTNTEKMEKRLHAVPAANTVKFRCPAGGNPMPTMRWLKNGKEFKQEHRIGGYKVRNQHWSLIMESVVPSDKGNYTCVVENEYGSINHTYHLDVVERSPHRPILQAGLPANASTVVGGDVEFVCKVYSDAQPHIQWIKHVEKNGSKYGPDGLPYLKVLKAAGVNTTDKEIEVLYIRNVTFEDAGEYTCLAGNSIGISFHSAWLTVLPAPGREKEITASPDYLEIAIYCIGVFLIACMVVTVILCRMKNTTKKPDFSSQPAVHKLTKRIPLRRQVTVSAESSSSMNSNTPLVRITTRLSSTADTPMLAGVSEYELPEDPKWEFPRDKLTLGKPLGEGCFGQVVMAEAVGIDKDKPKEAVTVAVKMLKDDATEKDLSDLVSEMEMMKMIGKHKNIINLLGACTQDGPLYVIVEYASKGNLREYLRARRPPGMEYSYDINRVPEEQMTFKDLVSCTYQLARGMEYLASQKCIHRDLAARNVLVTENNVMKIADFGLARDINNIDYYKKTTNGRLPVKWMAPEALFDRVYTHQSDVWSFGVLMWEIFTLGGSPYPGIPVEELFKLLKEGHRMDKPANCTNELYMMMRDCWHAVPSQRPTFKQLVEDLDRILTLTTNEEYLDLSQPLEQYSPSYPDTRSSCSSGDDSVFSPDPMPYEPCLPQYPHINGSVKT
Chain of Abl (P00519 whole entry, species assumed): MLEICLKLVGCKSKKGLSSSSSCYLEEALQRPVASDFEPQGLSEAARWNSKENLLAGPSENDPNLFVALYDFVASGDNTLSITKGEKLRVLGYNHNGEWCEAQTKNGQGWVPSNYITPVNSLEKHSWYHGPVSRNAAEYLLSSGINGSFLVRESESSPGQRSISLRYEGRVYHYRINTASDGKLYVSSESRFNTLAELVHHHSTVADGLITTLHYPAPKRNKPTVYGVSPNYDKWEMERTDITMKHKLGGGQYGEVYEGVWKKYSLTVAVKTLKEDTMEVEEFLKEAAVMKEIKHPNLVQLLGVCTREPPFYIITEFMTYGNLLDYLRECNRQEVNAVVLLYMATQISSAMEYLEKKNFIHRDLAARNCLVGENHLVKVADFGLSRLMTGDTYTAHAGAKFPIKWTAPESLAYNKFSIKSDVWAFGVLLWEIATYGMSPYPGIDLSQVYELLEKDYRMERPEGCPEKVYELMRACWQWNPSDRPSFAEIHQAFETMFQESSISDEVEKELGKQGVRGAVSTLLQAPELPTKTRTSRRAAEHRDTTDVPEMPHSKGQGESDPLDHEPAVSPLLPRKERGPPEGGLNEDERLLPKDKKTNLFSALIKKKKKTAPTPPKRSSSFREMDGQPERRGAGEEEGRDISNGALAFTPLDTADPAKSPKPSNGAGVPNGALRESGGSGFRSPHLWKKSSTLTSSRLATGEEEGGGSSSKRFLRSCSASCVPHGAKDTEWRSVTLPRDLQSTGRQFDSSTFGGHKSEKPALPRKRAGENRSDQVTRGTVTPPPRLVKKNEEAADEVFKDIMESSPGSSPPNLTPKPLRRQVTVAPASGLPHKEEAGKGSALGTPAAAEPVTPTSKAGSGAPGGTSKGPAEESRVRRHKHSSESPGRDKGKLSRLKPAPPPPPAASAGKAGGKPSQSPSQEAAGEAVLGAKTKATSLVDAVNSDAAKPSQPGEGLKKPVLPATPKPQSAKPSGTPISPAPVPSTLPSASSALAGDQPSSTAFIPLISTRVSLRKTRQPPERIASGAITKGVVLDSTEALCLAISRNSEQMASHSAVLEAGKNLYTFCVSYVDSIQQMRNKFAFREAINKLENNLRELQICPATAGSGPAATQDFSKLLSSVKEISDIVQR
Chain of ErbB4 (Q15303 26-1308, species assumed): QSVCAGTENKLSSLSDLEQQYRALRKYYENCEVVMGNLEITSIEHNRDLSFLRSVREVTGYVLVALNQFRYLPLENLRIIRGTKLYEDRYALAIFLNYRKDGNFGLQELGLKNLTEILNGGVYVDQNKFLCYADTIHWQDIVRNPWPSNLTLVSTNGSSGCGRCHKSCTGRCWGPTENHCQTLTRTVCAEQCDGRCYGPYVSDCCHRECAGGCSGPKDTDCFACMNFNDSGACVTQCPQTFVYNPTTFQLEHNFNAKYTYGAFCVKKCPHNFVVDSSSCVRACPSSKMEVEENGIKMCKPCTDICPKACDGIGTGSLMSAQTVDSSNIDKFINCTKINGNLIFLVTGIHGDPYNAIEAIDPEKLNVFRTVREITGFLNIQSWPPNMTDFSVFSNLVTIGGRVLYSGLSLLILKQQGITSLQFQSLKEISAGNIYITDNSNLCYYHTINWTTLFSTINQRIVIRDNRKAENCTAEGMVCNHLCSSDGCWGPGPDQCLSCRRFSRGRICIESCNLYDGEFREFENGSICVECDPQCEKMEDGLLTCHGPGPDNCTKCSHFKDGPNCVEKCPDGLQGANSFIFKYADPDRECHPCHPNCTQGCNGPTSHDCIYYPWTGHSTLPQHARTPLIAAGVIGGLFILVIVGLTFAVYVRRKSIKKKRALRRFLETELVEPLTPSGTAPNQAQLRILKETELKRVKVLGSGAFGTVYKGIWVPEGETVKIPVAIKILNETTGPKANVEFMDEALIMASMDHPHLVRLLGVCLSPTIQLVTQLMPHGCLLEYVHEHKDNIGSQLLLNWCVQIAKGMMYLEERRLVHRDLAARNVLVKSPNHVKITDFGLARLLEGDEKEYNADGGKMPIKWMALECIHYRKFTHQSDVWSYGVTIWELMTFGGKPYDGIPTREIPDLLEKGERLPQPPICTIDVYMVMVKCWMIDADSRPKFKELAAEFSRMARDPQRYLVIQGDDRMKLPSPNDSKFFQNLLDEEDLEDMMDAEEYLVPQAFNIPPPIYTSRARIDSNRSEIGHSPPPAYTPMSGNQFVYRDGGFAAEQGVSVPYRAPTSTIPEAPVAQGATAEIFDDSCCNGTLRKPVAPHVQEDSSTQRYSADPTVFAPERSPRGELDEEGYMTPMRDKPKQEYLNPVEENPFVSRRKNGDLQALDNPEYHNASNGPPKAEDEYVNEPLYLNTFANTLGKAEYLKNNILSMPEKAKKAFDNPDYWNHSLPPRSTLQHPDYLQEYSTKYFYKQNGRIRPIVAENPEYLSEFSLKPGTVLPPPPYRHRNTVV
Chain of PDGFR-β (P09619 33-1106, species assumed): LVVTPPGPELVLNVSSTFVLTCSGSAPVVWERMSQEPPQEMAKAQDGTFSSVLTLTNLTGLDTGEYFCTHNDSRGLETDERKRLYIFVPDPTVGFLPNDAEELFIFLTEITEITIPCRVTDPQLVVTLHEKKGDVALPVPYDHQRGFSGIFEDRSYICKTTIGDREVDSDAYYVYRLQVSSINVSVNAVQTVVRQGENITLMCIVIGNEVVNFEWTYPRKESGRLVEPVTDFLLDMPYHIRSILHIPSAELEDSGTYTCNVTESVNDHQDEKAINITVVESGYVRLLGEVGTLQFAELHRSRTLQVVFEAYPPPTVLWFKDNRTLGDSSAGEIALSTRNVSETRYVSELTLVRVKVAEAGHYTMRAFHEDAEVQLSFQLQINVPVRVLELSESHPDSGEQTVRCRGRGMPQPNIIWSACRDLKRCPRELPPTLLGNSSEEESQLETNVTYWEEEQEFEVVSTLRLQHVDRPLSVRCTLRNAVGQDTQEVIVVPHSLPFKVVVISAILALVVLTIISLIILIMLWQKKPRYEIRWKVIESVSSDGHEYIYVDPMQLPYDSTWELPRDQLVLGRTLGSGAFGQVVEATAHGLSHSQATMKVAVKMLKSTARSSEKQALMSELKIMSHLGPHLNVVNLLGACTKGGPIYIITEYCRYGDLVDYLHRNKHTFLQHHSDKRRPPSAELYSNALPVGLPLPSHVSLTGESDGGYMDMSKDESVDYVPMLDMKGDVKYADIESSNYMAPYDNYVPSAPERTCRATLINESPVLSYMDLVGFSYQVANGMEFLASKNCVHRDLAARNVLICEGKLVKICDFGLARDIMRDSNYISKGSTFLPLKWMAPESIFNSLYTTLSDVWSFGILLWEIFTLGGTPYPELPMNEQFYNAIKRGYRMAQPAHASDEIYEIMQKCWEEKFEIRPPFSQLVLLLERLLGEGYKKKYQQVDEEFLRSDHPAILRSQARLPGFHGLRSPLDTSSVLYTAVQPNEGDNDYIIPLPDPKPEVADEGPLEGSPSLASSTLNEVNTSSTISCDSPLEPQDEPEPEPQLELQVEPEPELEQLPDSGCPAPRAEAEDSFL

Regarding `O=S(=O)(c1cn(CCF)cn1)n1ccc2ncc(-c3cn[nH]c3)nc21` [Compound 13, 5-((1-(2-fluoroethyl)-1H-imidazol-4-yl)sulfonyl)-3-(1H-pyrazol-4-yl)-5H-pyrrolo[2,3-b]pyrazine], the inhibition at 0.01 µM against FGFR2 (10 nM) was determined as 60.9%; against PDGFR-β (10 nM) it was 12.8%; against ErbB4 (10 nM), 0%; on Abl (10 nM), 0%; at AXL (10 nM) it was 1.1%; at DDR2 (10 nM), 3.6%. Also, the inhibition at 0.1 µM against FGFR2 (100 nM) came to 92%; against PDGFR-β (100 nM), 30.1%; on ErbB4 (100 nM), 0%; on Abl (100 nM), 0%; on AXL (100 nM), 2.9%; at DDR2 (100 nM), 0.9%. For the same molecule, the inhibition at 1 µM is 97.2% against FGFR2 (1000 nM); 58.6% against PDGFR-β (1000 nM); 3% against ErbB4 (1000 nM); 0% against Abl (1000 nM); -5.5% against AXL (1000 nM); 4.6% at DDR2 (1000 nM).
